Patent EP4656642A1, “ESTROGEN RECEPTOR PROTEOLYSIS TARGETING CHIMERA COMPOUND AND USE THEREOF” (GAN & LEE PHARM CO., LTD, priority 2023, dated 2024)

Legend:
Format in all cases: cell-based
MCF-7 cells = assay: Inhibition of cell proliferation of MCF-7 cells (CCK-8, 9 days)
In short: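 Read-out was CCK-8 viability after 9-day continuous exposure (37°C, 5% CO2) of MCF-7 cells plated at 800/well in 10% FBS DMEM across several compound concentrations. Values are proliferation IC50s.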

T-47D cells = assay: Inhibition of cell proliferation in T-47D cells (CCK-8, 6 days); details: 6 days of treatment
In short: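 Viability read-out was CCK-8 after 6 days of compound treatment (37 °C, 5% CO2) across graded concentrations. Cells were T-47D seeded at 3,000 per well in 1640 medium plus 10% FBS. IC50 was calculated against proliferation.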

ERα [1] = target: T1, ERα (Homo sapiens, UniProt P03372); assay: Degradation of ERα in T-47D cells (immunoblotting, 4 h); design: host or cells: T-47D
T1 sequence (P03372 1-595): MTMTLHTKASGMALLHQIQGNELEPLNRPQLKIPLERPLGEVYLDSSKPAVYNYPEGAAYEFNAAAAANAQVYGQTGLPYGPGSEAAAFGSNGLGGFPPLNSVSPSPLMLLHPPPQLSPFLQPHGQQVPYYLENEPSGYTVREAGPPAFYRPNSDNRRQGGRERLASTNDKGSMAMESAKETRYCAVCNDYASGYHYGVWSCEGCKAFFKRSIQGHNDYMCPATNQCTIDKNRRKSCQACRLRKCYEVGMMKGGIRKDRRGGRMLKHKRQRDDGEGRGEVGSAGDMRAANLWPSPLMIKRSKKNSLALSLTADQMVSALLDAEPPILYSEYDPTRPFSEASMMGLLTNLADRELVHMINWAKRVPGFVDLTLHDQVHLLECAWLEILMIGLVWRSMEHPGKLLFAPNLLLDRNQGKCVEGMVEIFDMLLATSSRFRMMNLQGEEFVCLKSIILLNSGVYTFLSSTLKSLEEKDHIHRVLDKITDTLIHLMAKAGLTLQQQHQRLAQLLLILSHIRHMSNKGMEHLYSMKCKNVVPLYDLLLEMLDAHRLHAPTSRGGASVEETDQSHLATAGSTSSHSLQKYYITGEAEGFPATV
In short: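 ERα protein levels were assessed by immunoblot of RIPA lysates (with protease inhibitor) after 4 h exposure at 37°C. Compound was added in DMSO to T-47D cells at final concentrations of 0.15-1000 nM.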

ERα [2] = target: T1, ERα; assay: Degradation of ERα in MCF-7 cells (immunoblotting, 4 h)
In short: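 Degradation rate reflects ERα band intensity, corrected to an internal reference protein, relative to control. Values come from Western blotting of lysates from MCF-7 cells exposed 4 h at 37°C to compounds at final concentrations of 0.15-1000nM.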

[3] = treated for 9 days, CCK-8 kit (Table 6)
[4] = 9 days of treatment, CCK-8, Table 5

| Compound | IC50 (MCF-7 cells; [3]) [nM] | IC50 (T-47D cells; Table 3) [nM] | Degradation rate (%) of ERα in T-47D cells (ERα [1]; 1nM compound) [%] | Degradation rate (%) of ERα in T-47D cells (ERα [1]; 10nM compound) [%] | Degradation rate (%) of ERα in MCF-7 cells (ERα [2]; 1nM compound) [%] | Degradation rate (%) of ERα in MCF-7 cells (ERα [2]; 10nM compound) [%] | IC50 (MCF-7 cells; [4]) [nM] | IC50 (T-47D cells; Table 2) [nM] |
| --- | --- | --- | --- | --- | --- | --- | --- | --- |
| C[C@@H]1Cc2c([nH]c3ccccc23)[C@@H](c2c(F)cc(N3CCN(C[C@H]4CC[C@H](C(=O)N5CCC6(CC5)COc5c6ccc6c5CN(C5CCC(=O)NC5=O)C6=O)CC4)CC3)cc2F)N1CC(F)F (stereo partly drawn) [A114] | 10.3 | 1.18 | 48 | 73 | 46 | 62 | – | – |
| CC(C(=O)N1CCC2(CC1)COc1c2ccc2c1CN(C1CCC(=O)NC1=O)C2=O)N1CCC2(CCN(c3ccc([C@@H]4c5ccc(O)cc5CC[C@@H]4c4ccccc4)cc3)CC2)C1 (stereo partly drawn) [A88] | 66.8 | 1.18 | 65 | 72 | 57 | 54 | – | – |
| O=C1CCC(N2Cc3c(ccc4c3OCC43CCN(CC(=O)N4CC5(CCN(c6ccc([C@@H]7c8ccc(O)cc8CC[C@@H]7c7ccccc7)cc6)CC5)C4)CC3)C2=O)C(=O)N1 (stereo partly drawn) [K5] | 132 | 1.61 | 73 | 85 | 30 | 58 | – | – |
| C[C@@H]1CN(C(=O)C2CCN(c3cc(F)c(C4c5ccc6[nH]ncc6c5C[C@@H](C)N4CC(F)F)c(F)c3)CC2)CCC1N1CCC2(CC1)COc1c2ccc2c1CN(C1CCC(=O)NC1=O)C2=O (stereo partly drawn) [B40] | 45.3 | 1 | 64 | 68 | 54 | 61 | – | – |
| O=C1CCC(N2C(=O)c3cc4c(cc3C2=O)OC2(CC4)CN(CC3CCC4(CC3)CCN(c3ccc([C@@H]5c6ccc(O)cc6CC[C@@H]5c5ccccc5)cc3)CC4)C2)C(=O)N1 (stereo partly drawn) [A41] | 33 | 23 | 8 | 17 | -9 | -18 | – | – |
| O=C1CCC(N2Cc3c(ccc4c3OCC43CCN(CCN4CCC5(CCN(c6ccc([C@@H]7c8ccc(O)cc8CC[C@@H]7c7ccccc7)cc6)CC5)C4)CC3)C2=O)C(=O)N1 (stereo partly drawn) [N4] | 132 | 3 | 64 | 85 | 54 | 73 | – | – |
| O=C1CCC(N2Cc3c(ccc4c3OCC43CCN(CC4CCN(c5ccc([C@@H]6c7ccc(O)cc7CC[C@@H]6c6ccccc6)cc5)CC4)CC3)C2=O)C(=O)N1 (stereo partly drawn) [H8] | 27200 | 31.9 | -20 | -37 | -23 | -48 | – | – |
| O=C1CCC(N2Cc3ccc4c(c3C2=O)OC2(CC4)CCN(C3CCC4(CC3)CCN(c3ccc([C@@H]5c6ccc(O)cc6CC[C@@H]5c5ccccc5)cc3)CC4)CC2)C(=O)N1 (stereo partly drawn) [L1] | – | – | -9 | -45 | -2 | -29 | 130 | 5.2 |
| O=C1CCC(N2Cc3cc4c(cc3C2=O)CCC2(CN(C3CCC5(CC3)CCN(c3ccc([C@@H]6c7ccc(O)cc7CC[C@@H]6c6ccccc6)cc3)CC5)C2)O4)C(=O)N1 (stereo partly drawn) [A33] | – | – | 12 | 56 | -7 | 26 | 30 | 9.2 |
| O=C1CCC(N2Cc3c(ccc4c3OCC43CCN(C4CCC5(CC4)CCN(c4ccc([C@@H]6c7ccc(O)cc7CC[C@@H]6c6ccccc6)cc4)CC5)CC3)C2=O)C(=O)N1 (stereo partly drawn) [L15] | 19 | 8.02 | 23 | 71 | 18 | 57 | – | – |
| O=C1CCC(N2Cc3c(ccc4c3OCC43CCN(C(=O)c4ccc(CN5CCN(c6ccc([C@@H]7c8ccc(O)cc8CC[C@@H]7c7ccccc7)cc6)CC5)cc4)CC3)C2=O)C(=O)N1 (stereo partly drawn) [B39] | 25100 | 1.83 | 47 | 66 | 41 | 49 | – | – |
| O=C1CCC(N2Cc3c(ccc4c3OCC43CCN(C(=O)C4CCN(C5CCN(c6ccc([C@@H]7c8ccc(O)cc8CC[C@@H]7c7ccccc7)cc6)CC5)CC4)CC3)C2=O)C(=O)N1 (stereo partly drawn) [H22] | 3.5 | 1.57 | 56 | 73 | 32 | 64 | – | – |
| O=C1CCC(N2Cc3c(ccc4c3OCC43CCN(C(=O)[C@H]4CC[C@@H](N(CC5CC5)C5CCN(c6ccc([C@@H]7c8ccc(O)cc8CC[C@@H]7c7ccccc7)cc6)CC5)CC4)CC3)C2=O)C(=O)N1 (stereo partly drawn) [B48] | 33.5 | 4.35 | 61 | 80 | 63 | 74 | – | – |
| O=C1CCC(N2Cc3ccc4c(c3C2=O)OCC42CCN(C(=O)CN3CCC4(CCN(c5ccc([C@@H]6c7ccc(O)cc7CC[C@@H]6c6ccccc6)cc5)CC4)C3)CC2)C(=O)N1 (stereo partly drawn) [A92] | 11.6 | 1.34 | 48 | 66 | 36 | 66 | – | – |
| O=C1CCC(N2Cc3c(ccc4c3OCC43CCN(C4CCN(C5CC6(CCN(c7ccc([C@@H]8c9ccc(O)cc9CC[C@@H]8c8ccccc8)cc7)CC6)C5)[C@@H](C(=O)N5CCC(F)(F)CC5)C4)CC3)C2=O)C(=O)N1 (stereo partly drawn) [A99] | 4.19 | 2.07 | 51 | 82 | 35 | 77 | – | – |
| C[C@@H]1Cc2cc(O)ccc2[C@@H](c2c(F)cc(N3CC4(CCC(N5CCC6(CC5)COc5c6ccc6c5CN(C5CCC(=O)NC5=O)C6=O)CC4)C3)cc2F)N1CC(F)(F)F (stereo partly drawn) [I4] | 119 | 12.7 | 41 | 62 | 39 | 54 | – | – |
| CN(C1CCN(c2ccc([C@@H]3c4ccc(O)cc4CC[C@@H]3c3ccccc3)cc2)CC1)[C@H]1CC[C@H](C(=O)N2CCC3(CC2)COc2c3ccc3c2CN(C2CCC(=O)NC2=O)C3=O)CC1 (stereo partly drawn) [N2] | 247 | 3.63 | 10 | 42 | -7 | -8 | – | – |
